Reference: US20030022158A1, “Peptides from the TT virus sequence and monospecific antibodies binding to the TT virus” (priority 1999, published 2003)

Tested on: human IgG antibodies in human serum samples
Test: EIA of human antibody reactivities to overlapping synthetic peptides of TTV ORF1 and ORF2 (Tables 2 and 3)
Assay type: binding
Conditions: for optical density (OD) at 405 nm: serum diluted 1:100, OD over 0.500 considered positive; for human reactivity to peptide (reactive peptides within ORF1): tested human sera; for optical density (OD) at 405 nm, EIA reactivity of human serum sample 1: serum sample 1, negative for TTV DNA by PCR; for optical density (OD) at 405 nm, EIA reactivity of human serum sample 1 / optical density (OD) at 405 nm, EIA reactivity of human serum sample 2 / optical density (OD) at 405 nm, EIA reactivity of human serum sample 3 / optical density (OD) at 405 nm, EIA reactivity of human serum sample 4 / optical density (OD) at 405 nm, EIA reactivity of human serum sample 5 / optical density (OD) at 405 nm, EIA reactivity of human serum sample 6 / optical density (OD) at 405 nm, EIA reactivity of human serum sample 7 / optical density (OD) at 405 nm, EIA reactivity of human serum sample 9 / optical density (OD) at 405 nm, EIA reactivity of human serum sample 11 / optical density (OD) at 405 nm, EIA reactivity of human serum sample 18 / optical density (OD) at 405 nm, EIA reactivity of human serum sample 36 / optical density (OD) at 405 nm, EIA reactivity of human serum sample 48 / optical density (OD) at 405 nm, EIA reactivity of human serum sample 98 / optical density (OD) at 405 nm, EIA reactivity of human serum sample 110 / optical density (OD) at 405 nm, EIA reactivity of human serum sample 155 / optical density (OD) at 405 nm, EIA reactivity of human serum sample 157: serum 1:100, peptide coated 10 μg/ml, OD over 0.500 positive; for optical density (OD) at 405 nm, EIA reactivity of human serum sample 2: serum sample 2, negative for TTV DNA by PCR; for optical density (OD) at 405 nm, EIA reactivity of human serum sample 3: serum sample 3, negative for TTV DNA by PCR; for optical density (OD) at 405 nm, EIA reactivity of human serum sample 4: serum sample 4, negative for TTV DNA by PCR; for optical density (OD) at 405 nm, EIA reactivity of human serum sample 5: serum sample 5, negative for TTV DNA by PCR; for optical density (OD) at 405 nm, EIA reactivity of human serum sample 6: serum sample 6, negative for TTV DNA by PCR; for optical density (OD) at 405 nm, EIA reactivity of human serum sample 7: serum sample 7, negative for TTV DNA by PCR; for optical density (OD) at 405 nm, EIA reactivity of human serum sample 9: serum sample 9, positive for TTV DNA by PCR; for optical density (OD) at 405 nm, EIA reactivity of human serum sample 11: serum sample 11, negative for TTV DNA by PCR; for optical density (OD) at 405 nm, EIA reactivity of human serum sample 18: serum sample 18, positive for TTV DNA by PCR; for optical density (OD) at 405 nm, EIA reactivity of human serum sample 36: serum sample 36, positive for TTV DNA by PCR; for optical density (OD) at 405 nm, EIA reactivity of human serum sample 48: serum sample 48, positive for TTV DNA by PCR; for optical density (OD) at 405 nm, EIA reactivity of human serum sample 98: serum sample 98, positive for TTV DNA by PCR; for optical density (OD) at 405 nm, EIA reactivity of human serum sample 110: serum sample 110, positive for TTV DNA by PCR; for optical density (OD) at 405 nm, EIA reactivity of human serum sample 155: serum sample 155, positive for TTV DNA by PCR; for optical density (OD) at 405 nm, EIA reactivity of human serum sample 157: serum sample 157, positive for TTV DNA by PCR
Description: Overlapping peptides (18 amino acids in length containing an 8 amino acid overlap) corresponding to regions of the ORFI and ORF2 of TTV (TABLE 1; Genebank accession no AB008394) were produced by a multiple peptide synthesizer (Syro, Syntex, Germany) using standard Fmoc chemistry (Sallberg et al., Immunology Letters, 30:59 68 (1991), herein expressly incorporated by reference in its entirety).
The EIAs used to identify which peptides interacted with human sera followed protocols known in the art. (See Zhang et al., J Gen Virol, 78:2735-2746 (1997), herein expressly incorporated by reference in its entirety). Briefly, microplates (Nunc, Denmark) were coated for 48 hours with synthetic peptides at a concentration of 10 μg/ml in 0.05M sodium carbonate buffer pH 9.6. After blocking for 2 hours at room temperature with phosphate buffered saline containing 1% bovine serum albumin, 2% goat serum and 0.05% Tween 20 (dilution buffer) the plates were incubated with human sera diluted 1:100 in dilution buffer. Bound human IgG was detected by incubation with anti-human IgG antibodies conjugated to alkaline phosphatase (Sigma Chemicals, St. Louis, Mo.). The plates were developed by the addition of […] (Sigma) and the optical densities were determined at 405 nm.

[1] = human serum sample 1, negative for TTV DNA by PCR
[2] = human serum sample 2, negative for TTV DNA by PCR
[3] = human serum sample 3, negative for TTV DNA by PCR
[4] = human serum sample 4, negative for TTV DNA by PCR
[5] = human serum sample 5, negative for TTV DNA by PCR
[6] = human serum sample 6, negative for TTV DNA by PCR
[7] = human serum sample 7, negative for TTV DNA by PCR
[8] = human serum sample 9, positive for TTV DNA by PCR
[9] = human serum sample 11, negative for TTV DNA by PCR
[10] = human serum sample 18, positive for TTV DNA by PCR
[11] = human serum sample 36, positive for TTV DNA by PCR
[12] = human serum sample 48, positive for TTV DNA by PCR
[13] = human serum sample 98, positive for TTV DNA by PCR
[14] = human serum sample 110, positive for TTV DNA by PCR
[15] = human serum sample 155, positive for TTV DNA by PCR
[16] = human serum sample 157, positive for TTV DNA by PCR

Sequence | optical density (OD) at 405 nm [1] [OD] | optical density (OD) at 405 nm [2] [OD] | optical density (OD) at 405 nm [3] [OD] | optical density (OD) at 405 nm [4] [OD] | optical density (OD) at 405 nm [5] [OD] | optical density (OD) at 405 nm [6] [OD] | optical density (OD) at 405 nm [7] [OD] | optical density (OD) at 405 nm [8] [OD] | optical density (OD) at 405 nm [9] [OD] | optical density (OD) at 405 nm [10] [OD] | optical density (OD) at 405 nm [11] [OD] | optical density (OD) at 405 nm [12] [OD] | optical density (OD) at 405 nm [13] [OD] | optical density (OD) at 405 nm [14] [OD] | optical density (OD) at 405 nm [15] [OD] | optical density (OD) at 405 nm [16] [OD] | human reactivity to peptide (reactive peptides within ORF1) (EIA) | optical density (OD) at 405 nm, EIA reactivity of human serum sample 1 [OD] | optical density (OD) at 405 nm, EIA reactivity of human serum sample 2 [OD] | optical density (OD) at 405 nm, EIA reactivity of human serum sample 3 [OD] | further results
QKESLLFPPVKLLRRVP (Peptide Immunogen) [compound 69, overlapping synthetic peptide of TTV ORF1] | 0.10 | 0.15 | 0.16 | 0.14 | 0.12 | 0.51 | 0.11 | 0.09 | 0.13 | 0.08 | 0.08 | 0.09 | 0.10 | 0.11 | 0.15 | 0.21 | Reactive | – | – | – | –
KINTMPPFLDTELTAPS (Peptide Immunogen) [compound 18, overlapping synthetic peptide of TTV ORF1] | 0.09 | 0.09 | 0.15 | 0.29 | 0.07 | 0.13 | 0.62 | 0.08 | 0.28 | 0.07 | 0.13 | 0.12 | 0.04 | 0.08 | 0.19 | 0.18 | Reactive | 0.00 | 0.00 | 0.00 | optical density (OD) at 405 nm, EIA reactivity of human serum sample 4: 0.00 OD; optical density (OD) at 405 nm, EIA reactivity of human serum sample 5: 0.00 OD; optical density (OD) at 405 nm, EIA reactivity of human serum sample 6: 0.00 OD; optical density (OD) at 405 nm, EIA reactivity of human serum sample 7: 0.00 OD; optical density (OD) at 405 nm, EIA reactivity of human serum sample 9: 0.00 OD; optical density (OD) at 405 nm, EIA reactivity of human serum sample 11: 0.00 OD; optical density (OD) at 405 nm, EIA reactivity of human serum sample 18: 0.00 OD; optical density (OD) at 405 nm, EIA reactivity of human serum sample 36: 0.00 OD; optical density (OD) at 405 nm, EIA reactivity of human serum sample 48: 0.00 OD; optical density (OD) at 405 nm, EIA reactivity of human serum sample 98: 0.00 OD; optical density (OD) at 405 nm, EIA reactivity of human serum sample 110: 0.00 OD; optical density (OD) at 405 nm, EIA reactivity of human serum sample 155: 0.00 OD; optical density (OD) at 405 nm, EIA reactivity of human serum sample 157: 0.00 OD
VLICGENTVSRNYATHS (Peptide Immunogen) [compound 10, overlapping synthetic peptide of TTV ORF1] | 0.09 | 0.10 | 0.11 | 0.11 | 0.11 | 0.13 | 1.09 | 0.09 | 0.12 | 0.07 | 0.07 | 0.11 | 0.06 | 0.09 | 0.12 | 0.12 | Reactive | 0.09 | 0.11 | 0.10 | optical density (OD) at 405 nm, EIA reactivity of human serum sample 4: 0.09 OD; optical density (OD) at 405 nm, EIA reactivity of human serum sample 5: 0.08 OD; optical density (OD) at 405 nm, EIA reactivity of human serum sample 6: 0.11 OD; optical density (OD) at 405 nm, EIA reactivity of human serum sample 7: 0.08 OD; optical density (OD) at 405 nm, EIA reactivity of human serum sample 9: 0.09 OD; optical density (OD) at 405 nm, EIA reactivity of human serum sample 11: 0.10 OD; optical density (OD) at 405 nm, EIA reactivity of human serum sample 18: 0.09 OD; optical density (OD) at 405 nm, EIA reactivity of human serum sample 36: 0.07 OD; optical density (OD) at 405 nm, EIA reactivity of human serum sample 48: 0.08 OD; optical density (OD) at 405 nm, EIA reactivity of human serum sample 98: 0.08 OD; optical density (OD) at 405 nm, EIA reactivity of human serum sample 110: 0.08 OD; optical density (OD) at 405 nm, EIA reactivity of human serum sample 155: 0.11 OD; optical density (OD) at 405 nm, EIA reactivity of human serum sample 157: 0.13 OD
EDGGAGGDADHGGAAGGP (Peptide Immunogen) [ORF2 peptide 19, overlapping synthetic peptide of TTV ORF2] | – | – | – | – | – | – | – | – | – | – | – | – | – | – | – | – | – | – | – | – | number of tested human sera reactive with the peptide (ORF2 peptide, EIA): Two of the tested human sera were reactive
